In patent US20240010639A1, “TRIAZINE DIONE DERIVATIVE, PREPARATION METHOD THEREFOR AND APPLICATION THEREOF IN MEDICINE” (Jiangsu Hengrui Pharmaceuticals Co., Ltd., priority 2020, published 2024):
Read-outs that look alike come from different tables or passages of the source.

How the values were obtained:
[1] = Toxicokinetic evaluation of 14-day repeated intragastric administration to SD rats; assay type: in vivo; conditions: both sexes, SD, rat, plasma, po; for Vd/F at 7 day: Day 7, read-out: Apparent volume of distribution Vz/F; for CL/F at 7 day: Day 7, read-out: Clearance CL/F; for half-life at 7 day: Day 7, read-out: Half-life T1/2 (converted); for MRT at 7 day: Day 7, read-out: Residence time MRT; for Vd/F at 14 day: Day 14, read-out: Apparent volume of distribution Vz/F; for CL/F at 14 day: Day 14, read-out: Clearance CL/F; for half-life at 14 day: Day 14, read-out: Half-life T1/2 (converted); for Cmax at 14 day: Day 14, read-out: Plasma concentration Cmax; for MRT at 14 day: Day 14, read-out: Residence time MRT
Description: With SD rats as test animals, the plasma concentrations of the test compounds and the concentrations of the original forms of the compounds in the administration solutions were measured by LC/MS/MS at different time points after intragastric administration. The toxicokinetic performance of the compound disclosed herein was studied in SD rats and its toxicokinetic profile was evaluated.
24 SD rats, an equal number of males and females, evenly divided into 6 groups of 4, an equal number of males and females in each group, provided by Vital River Laboratory Animal Technology Co., Ltd.
A certain amount of the compound of Example 16 was measured out, and 15% PEG400 and 85% (10% TPGS+1% HPMC K100LV) were added to prepare a pale yellow homogenous suspension.
A certain amount of compound MYK-461 was measured out, and 0.5% MC was added to prepare a colorless clear solution.
The compound of Example 16 was intragastrically administered at doses of 5 mg/kg, 15 mg/kg and 30 mg/kg, at a volume of 10 mL/kg.
Compound MYK-461 was administered at doses of 0.5 mg/kg, 1.5 mg/kg and 3 mg/kg, at a volume of 10 mL/kg.
0.2-mL blood samples were collected from the orbit 0.5 h, 1.0 h, 2.0 h, 4.0 h, 8.0 h and 24.0 h after administration on day 1, and before administration and 0.5 h, 1.0 h, 2.0 h, 4.0 h, 8.0 hi, 24.0 h after administration on day 7 and day 14, placed into EDTA-K2 anticoagulation tubes, and centrifuged at 10,000 rpm for 1 min (4° C.), and plasma was isolated within 1 h and stored at −20° C. before analysis. The blood collection to centrifugation process was performed under ice bath conditions. Two hours after administration, feeding was resumed.
Determination of plasma concentrations in SD rats after intragastric administration of different concentrations of test compounds: 20 μL of SD rat plasma at each time point post-dose was mixed with 50 μL of an internal standard solution (internal standard for the compound of Example 16: 100 ng/mL verapamil; internal standard for compound MYK-461: 100 ng(mL camptothecin) and 200 μL of acetonitrile; the mixture was vortexed for 5 min and centrifuged at 3700 rpm for 10 min, and 1 μL of the supernatant was taken for LC/MS/MS analysis.

[2] = Pharmacokinetic evaluation in beagles; assay type: in vivo; conditions: for AUC: read-out: Area under curve AUC; for half-life: read-out: Half-life T1/2 (converted); for Cmax: read-out: Plasma concentration Cmax; for MRT: read-out: Residence time MRT
Description: With beagles as test animals, the plasma concentrations of the test compounds were measured by LC/MS/MS at different time points after intragastric administration and intravenous injection. The pharmacokinetic performance of the compound disclosed herein was studied in beagles and its pharmacokinetic profile was evaluated.
Pharmacokinetics of the compound of Example 16 in beagles: 8 beagles, an equal number of males and females, divided into 2 groups of 4, provided by Shanghai Medicilon Inc. Pharmacokinetics of compound MYK-461 in beagles: 6 beagles, male, divided into 2 groups of 3, provided by Shanghai Medicilon Inc.
A certain amount of the compound of Example 16 was measured out, and 5% DMSO, 30% PG, 30% PEG400 and 35% normal saline were added to prepare a clear solution.
A certain amount of compound MYK-461 was measured out, and 5% DMSO, 20% PG, 20% PEG400 and 55% normal saline were added to prepare a clear solution.
Beagles were fasted overnight and then given compounds by intragastric administration and intravenous injection at doses of 2 mg/kg and 0.5 mg/kg, respectively, and at volumes of 5 mL/kg and 2 mL/kg, respectively.
1.0-mL blood samples were collected from the jugular veins or forelimb veins of the animals in the intragastric administration group before administration and 0.25 h, 0.5 h, 1.0 h, 2.0 h, 4.0 h, 6.0 h, 8.0 h, 12.0 h and 24.0 h after administration, placed into EDTA-K2 anticoagulant tubes, and centrifuged at 10,000 rpm for 5 min (4° C.), and plasma was isolated within 1 h and stored at −80° C. before analysis. The blood collection to centrifugation process was performed under ice bath conditions. Three hours after administration, feeding was resumed.
Blood samples were collected from the animals in the intravenous injection group before administration and 5 min, 0.25 h, 0.5 h, 1.0 h, 2.0 h, 4.0 h, 8.0 h, 12.0 h and 24.0 h after administration and processed as in the intragastric administration group.
Determination of plasma concentrations in beagles after intragastric administration and intravenous injection of different concentrations of test compounds: 30 μL of beagle plasma at each time point post-dose was mixed with an internal standard solution (internal standard for the compound of Example 16: 100 ng/mL warfarin; internal standard for compound MYK-461: 100 ng/mL tolbutamide) and 300 μL of methanol; the mixture was vortexed for 1 min and centrifuged at 18,000 g for 7 min, and 200 μL of the supernatant was transferred to a 96-well plate; 1 μL of the supernatant was taken for LC/MS/MS analysis.

[3] = 0.5 mg/kg, repeated intragastric 0.5 mg/kg
[4] = 1.5 mg/kg, repeated intragastric 1.5 mg/kg
[5] = 3 mg/kg, repeated intragastric 3.0 mg/kg
[6] = both (Example 16), male (MYK-461), beagle, dog, plasma, intravenous injection, 0.5 mg/kg
[7] = both (Example 16), male (MYK-461), beagle, dog, plasma, po, intragastric administration, 2 mg/kg
[8] = intravenous injection, 0.5 mg/kg

CC(C)n1c(=O)cc(N[C@@H](C)c2ccccc2)[nH]c1=O [MYK-461, reference compound]
Vd/F ([1]; 0.5 mg/kg, repeated intragastric 0.5 mg/kg, Day 1, read-out: Apparent volume of distribution Vz/F): 13.8 L/kg | AUC ([1]; 0.5 mg/kg, repeated intragastric 0.5 mg/kg, Day 1, read-out: Area under curve AUC): 0.491 µg·h/mL | CL/F ([1]; 0.5 mg/kg, repeated intragastric 0.5 mg/kg, Day 1, read-out: Clearance CL/F): 0.774 L/h/kg | half-life ([1]; 0.5 mg/kg, repeated intragastric 0.5 mg/kg, Day 1, read-out: Half-life T1/2 (converted)): 13.3 h | Cmax ([1]; 0.5 mg/kg, repeated intragastric 0.5 mg/kg, Day 1, read-out: Plasma concentration Cmax): 0.0402 µg/mL | MRT ([1]; 0.5 mg/kg, repeated intragastric 0.5 mg/kg, Day 1, read-out: Residence time MRT): 19 h | Vd/F at 7 day [1, 3]: 8.41 L/kg | AUC ([1]; 0.5 mg/kg, repeated intragastric 0.5 mg/kg, Day 7, read-out: Area under curve AUC): 0.888 µg·h/mL | CL/F at 7 day [1, 3]: 0.448 L/h/kg | half-life at 7 day [1, 3]: 14.7 h | Cmax ([1]; 0.5 mg/kg, repeated intragastric 0.5 mg/kg, Day 7, read-out: Plasma concentration Cmax): 0.0517 µg/mL | MRT at 7 day [1, 3]: 21.3 h | Vd/F at 14 day [1, 3]: 5.86 L/kg | AUC ([1]; 0.5 mg/kg, repeated intragastric 0.5 mg/kg, Day 14, read-out: Area under curve AUC): 1.56 µg·h/mL | CL/F at 14 day [1, 3]: 0.184 L/h/kg | half-life at 14 day [1, 3]: 32.9 h | Cmax at 14 day [1, 3]: 0.0893 µg/mL | MRT at 14 day [1, 3]: 47.3 h | Vd/F at 1 day ([1]; 1.5 mg/kg, repeated intragastric 1.5 mg/kg, Day 1, read-out: Apparent volume of distribution Vz/F): 9.56 L/kg | AUC ([1]; 1.5 mg/kg, repeated intragastric 1.5 mg/kg, Day 1, read-out: Area under curve AUC): 2.58 µg·h/mL | CL/F at 1 day ([1]; 1.5 mg/kg, repeated intragastric 1.5 mg/kg, Day 1, read-out: Clearance CL/F): 0.383 L/h/kg | half-life at 1 day ([1]; 1.5 mg/kg, repeated intragastric 1.5 mg/kg, Day 1, read-out: Half-life T1/2 (converted)): 19.1 h | Cmax at 1 day ([1]; 1.5 mg/kg, repeated intragastric 1.5 mg/kg, Day 1, read-out: Plasma concentration Cmax): 0.14 µg/mL | MRT at 1 day ([1]; 1.5 mg/kg, repeated intragastric 1.5 mg/kg, Day 1, read-out: Residence time MRT): 28.2 h | Vd/F at 7 day [1, 4]: 4.8 L/kg | AUC ([1]; 1.5 mg/kg, repeated intragastric 1.5 mg/kg, Day 7, read-out: Area under curve AUC): 5.18 µg·h/mL | CL/F at 7 day [1, 4]: 0.215 L/h/kg | half-life at 7 day [1, 4]: 20.5 h | Cmax at 7 day ([1]; 1.5 mg/kg, repeated intragastric 1.5 mg/kg, Day 7, read-out: Plasma concentration Cmax): 0.269 µg/mL | MRT at 7 day [1, 4]: 30.2 h | Vd/F at 14 day [1, 4]: 5.03 L/kg | AUC ([1]; 1.5 mg/kg, repeated intragastric 1.5 mg/kg, Day 14, read-out: Area under curve AUC): 6.32 µg·h/mL | CL/F at 14 day [1, 4]: 0.154 L/h/kg | half-life at 14 day [1, 4]: 26.2 h | Cmax at 14 day [1, 4]: 0.333 µg/mL | MRT at 14 day [1, 4]: 38.5 h | Vd/F at 1 day ([1]; 3 mg/kg, repeated intragastric 3.0 mg/kg, Day 1, read-out: Apparent volume of distribution Vz/F): 8.93 L/kg | AUC ([1]; 3 mg/kg, repeated intragastric 3.0 mg/kg, Day 1, read-out: Area under curve AUC): 5.21 µg·h/mL | CL/F at 1 day ([1]; 3 mg/kg, repeated intragastric 3.0 mg/kg, Day 1, read-out: Clearance CL/F): 0.295 L/h/kg | half-life at 1 day ([1]; 3 mg/kg, repeated intragastric 3.0 mg/kg, Day 1, read-out: Half-life T1/2 (converted)): 28.5 h | Cmax at 1 day ([1]; 3 mg/kg, repeated intragastric 3.0 mg/kg, Day 1, read-out: Plasma concentration Cmax): 0.297 µg/mL | MRT at 1 day ([1]; 3 mg/kg, repeated intragastric 3.0 mg/kg, Day 1, read-out: Residence time MRT): 43.1 h | Vd/F at 7 day [1, 5]: 4.36 L/kg | AUC ([1]; 3 mg/kg, repeated intragastric 3.0 mg/kg, Day 7, read-out: Area under curve AUC): 12.5 µg·h/mL | CL/F at 7 day [1, 5]: 0.118 L/h/kg | half-life at 7 day [1, 5]: 190 h | Cmax at 7 day ([1]; 3 mg/kg, repeated intragastric 3.0 mg/kg, Day 7, read-out: Plasma concentration Cmax): 0.628 µg/mL | MRT at 7 day [1, 5]: 275 h | Vd/F at 14 day [1, 5]: 3.8 L/kg | AUC ([1]; 3 mg/kg, repeated intragastric 3.0 mg/kg, Day 14, read-out: Area under curve AUC): 16 µg·h/mL | CL/F at 14 day [1, 5]: 0.078 L/h/kg | half-life at 14 day [1, 5]: 46.5 h | Cmax at 14 day [1, 5]: 0.767 µg/mL | MRT at 14 day [1, 5]: 68.1 h | T1/2 comparison (in words) [2]: longer T1/2 | AUC [2, 6]: 1.38 µg·h/mL | half-life [2, 6]: 47.2 h | Cmax [2, 6]: 0.215 µg/mL | MRT [2, 6]: 72.2 h | Vd/F ([2]; both (Example 16), male (MYK-461), beagle, dog, plasma, po, intragastric administration, 2 mg/kg, read-out: Apparent volume of distribution Vz/F): 3.9 L/kg | AUC [2, 7]: 8.72 µg·h/mL | CL/F ([2]; both (Example 16), male (MYK-461), beagle, dog, plasma, po, intragastric administration, 2 mg/kg, read-out: Clearance CL/F): 0.0888 L/h/kg | half-life [2, 7]: 38.9 h | Cmax [2, 7]: 1.44 µg/mL | MRT [2, 7]: 59.2 h | Apparent volume of distribution Vz/F [2, 8]: 6.308 L/kg | Clearance CL/F [2, 8]: 0.0978 L/h/kg
